Test results published in patent US6001810A, “Methods for treating retroviral infection” (Eli Lilly and Company, priority 1990, dated 1999).
≈ marks a conversion by molar mass, not a printed value. Each block holds one compound with its values, some of them ahead of it. Non-standard residues stand in square brackets, D forms with d. Residues, ends and D or L forms follow the SMILES beside them. *: point of attachment. Phe(4-NH2) = Nc1ccc(C[C@H](N)C(=O)O)cc1; 1Nal = N[C@@H](Cc1cccc2ccccc12)C(=O)O; Sta = CC(C)C[C@H](N)[C@@H](O)CC(=O)O; Isovaleryl = CC(C)CC(=O)*

Tests used:
HIV-1 protease = target: T1, HIV-1 protease (Human immunodeficiency virus type 1 group M subtype B, UniProt P04585); experiment: HIV-1 protease inhibition assay (gag precursor maturation, Western blot); type: biochemical
T1 construct: a gene encoding the mature HIV-1 protease of 99 amino acids; last 58 codons of bovine growth hormone, fused behind the first 144 amino acids of reverse transcriptase in the expressed precursor (C); made in house; host or cells: Escherichia coli K12 L507/pHP10D (NRRL B-18560), crude lysate
Method: A 100 μl control reaction was established containing 10 to 20 μl of crude protease, about 2 μl of the gag supernatant and final concentrations of 50 mM MES Buffer (pH 5.5), 1 mM DTT and 25 mM NaCl. Inhibition assays were performed by pre-incubating the crude protease with an inhibitory compound at room temperature for about 30 minutes before adding the gag supernatant to the reaction. Both the control and the experimental reactions were incubated from three to sixteen hours at 37° C. The reactions were then electrophoresed and blotted onto nitrocellulose filters. Monoclonal antibodies which recognize epitopes on p24 and p17 viral proteins were contacted with the filter then visualized using standard biotinylation or radionuclear techniques. Compounds which prevented the maturation of the gag polypeptide into mature viral proteins p24 and p17 were then ranked according to their HIV-1 protease inhibitory activity.
About 10 to 20 μl of the crude protease lysate was mixed with about 2 μl of the gag supernatant. The mixture was then brought to a total volume of 100 μl by the addition of distilled water, MES buffer (2-[N-Morpholino]ethanesulfonic acid) (pH 5.5 to a total concentration of 50 mM), DTT (dithiolthreitol) (to a total concentration of 1 mM) and NaCl (to a total concentration of 25 mM). This reaction mixture was mixed gently then incubated from 3 hours to overnight at 37° C.
Next, about 25 μl of the reaction was mixed with loading buffer and subjected to polyacrylamide gel electrophoresis on a 12.5% Laemmli gel under reducing conditions. The proteins were transferred onto a nitrocellulose filter using standard "Western Blot" electrophoresis at 500 mAmps for 35 minutes at room temperature. The filter was air-dried, then non-specific immunoreaction was blocked by washing the filter for 30 minutes at 4° C. in a solution of 3% non-fat dry milk powder in phosphate buffered saline (PBS).
Monoclonal antibodies against p17 and/or p24 (available from DuPont, Wilmington, Del.) were added to about 40 ml of the 3% milk/PBS solution to a final concentration of 2 μg/ml. […] The filter then was removed and washed 5 times with PBS, then the maturation of the gag gene was determined by reaction with I^125 -labeled protein A or by reaction with biotinylated anti-mouse IgG antibodies (Vecta Stain®). […]
Following the procedure, it is simple to determine the activity of the HIV-1 protease encoded on plasmid pHP10D and produced in E. coli cells. When the protease is fully active, the gag protein, encoded by plasmid pHGAG and produced in E. coli, is cleaved from the precursor gag form into mature p24 and p17 proteins, which are readily measured by their presence relative to the precursor protein. […]

CEM cells = type: cell-based
Method: (§1) Quantitative evaluation of the viral inhibition were performed on the T-cell lymphoblastoid cell lines MT-2 (Harada et al., 1985, Science 229:563-566) and CEM (Nara and Fischinger, 1988, Nature 332:469-470). The cells were infected with the HTLV-IIIB strain of HIV-1 from the supernatant fluid of infected human T-lymphocyte cell line H9 (Popovic, M. et al., 1984, Science 224:497-500). Each of these three cell lines are publicly available from the National Institutes of Health (NIH) AIDS Research and Reference Reagent Program. The H9/HTLC-IIIB cell line is available under catalogue number 231, while CEM cell line is available under catalogue number 117 and the MT-2 cell line is available under the catalogue number 237. MT-2 and CEM cells were grown in RPMI 1640 medium supplemented with 10% (v/v) fetal calf serum, 100 U/ml penicillin, 100 μg/ml streptomycin and 25 mM HEPEs buffer. H9 cells were grown in the same medium except 20% fetal calf serum was used. The peptides were diluted in the medium used for MT-2 and CEM cells. Cell cultures were maintained in disposable tissue culture labware at 37° C. in a humidified atmosphere of 5% CO2 in air.
(§2) The inhibitors were dissolved in DMSO at 40 mg/ml or sterile water at 2 mg/ml, then dilutions were made in medium. The dilutions were added to micro-titer plates in 100 μl/well aliquots so that the high drug concentration for each screen was 100 μg/ml after the addition of cells to the well.
(§3) Susceptible MT-2 and CEM cells were grown and the cell population determined by a trypan blue viable cell count. The desired total number of cells were placed in a sterile, disposable 50 ml conical centrifuge tube and virus was added to give an MOI (Multiplicity of Infection) of 0.03 TCID50 /cell (Tissue Culture Infectious Dose) on MT-2 cells and approximately 0.12 TCID50 /cell on CEM cells. Fresh medium was added to adjust the cell density to 1×10^5 cells/ml, then the virus-cell suspension was incubated at 37° C. for 1 to 2 hours until plating. Uninfected controls cell were prepared in the same manner but without the addition of virus. Infected and uninfected cells were added to plates in 100 μl/well aliquots to give a starting cell number of 1×10^4 cells/well. The plates were incubated for seven days in a humidified atmosphere of 5% CO2 in air.
Reagents for colorimetric evaluation of cell viability were prepared by mixing the tetrazolium reagent, XTT, and phenazine methosulfate (PMS) to final concentrations of 200 μg/ml and 0.02 mM, respectively. Fifty microliters of the XTT-PMS solution was added to each well of the microtiter plates, then the plates were incubated in the CO2 incubator for another four hours. The lids were removed from the plates and replaced with adhesive plate sealers. The plates were read with the sealers in place in a Vmax Plate Reader® at 450 nm and 650 nm. The cytopathic effect (CPE) and percentage of cell viability were then calculated.
The activity and cytotoxicity of several other peptides were also assayed in CEM cells using the same procedure as described above. These assays also included toxicity and activity levels of both 25% and 50%.

MT-2 cells = type: cell-based
Method: as §1, §2, §3
Reagents for colorimetric evaluation of cell viability were prepared by mixing the tetrazolium reagent, XTT, and phenazine methosulfate (PMS) to final concentrations of 200 μg/ml and 0.02 mM, respectively. […] The plates were read with the sealers in place in a Vmax Plate Reader® at 450 nm and 650 nm. The cytopathic effect (CPE) and percentage of cell viability were then calculated.

Mo-MuLV = experiment: Moloney Murine Leukemia Virus Assay, CPE inhibition in SC-1/XC cells; type: cell-based; set-up: key: 4+(>90%); 3+(>60%); 2+(>40%); 1+(>20%); -(Negative)
Method: (§4) About 3 to 5×10^3 SC-1 cells (available from the American Type Culture Collection, Rockville, Md. under the accession number ATCC CRL-1404) per well of a 96-well microtiter plate were seeded in minimal essential medium supplemented with 5% fetal bovine serum, penicillin (150 U/ml), Streptomycin (150 μg/ml) and polybrene (2 μg/ml), then infected with Mo-MuLV (Multiplicity of Infection=10 PFU/cell) the next day. The virus was allowed to adsorb to the cells for 1 hour, then medium containing serial dilutions of P-7, P-9 or medium alone was added to the cells. Pepstatin A ([…]-Val-Val-Statine-Ala-Statine) and AZT (3'-Azido-3'-deoxythymidine) were also added as controls. After incubation for 5 days (when cells were confluent) the SC-1 cells were UV irradiated for 10 seconds and 5 to 8×10^4 XC cells (ATCC CCL-165) per well were added. Generally, about two additional days of incubation were required to obtain full virus-induced cytopathic effect.

MLV = MLV XC Plaque Reduction Assay - Virus Yield; type: cell-based, Murine Leukemia Virus
Method: as §4
The assay described above was also preferred to determine the virus yield. In this experiment, the supernatents were removed from the SC-1 cells four days after infection and tested for MLV titers, using the XC-plaque assay as previously described.

Compound: CC(=O)N[C@H](C(=O)N[C@@H](CC(C)C)[C@@H](O)CC(=O)N[C@@H](CC(C)C)C(=O)N[C@@H](Cc1ccccc1)C(N)=O)C(C)C [Ac-Val-Statine-Leu-Phe--NH2] (Ac-V[Sta]LF-NH2)
Inhibitory activity against the HIV protease (in words) (HIV-1 protease): inactive

Compound: CC(C)C[C@H](NC(=O)C[C@H](O)[C@H](CC(C)C)NC(=O)[C@@H](NC(=O)[C@H](Cc1ccccc1)NC(=O)[C@@H]1CCCN1C(=O)[C@@H](N)Cc1c[nH]cn1)C(C)C)C(=O)N[C@@H](Cc1ccccc1)C(=O)N[C@@H](Cc1ccc(N)cc1)C(N)=O [P-15, H-His Pro Phe Val Statine Leu Phe paF NH2] (H-HPFV[Sta]LF[Phe(4-NH2)]-NH2)
MTC50 (minimum cytotoxic drug concentration that reduces cell viability to 50%) (CEM cells): > 100 µg/mL | MTC50 (minimum cytotoxic drug concentration that reduces cell viability to 50%) (MT-2 cells): > 100 µg/mL

Compound: H-Pro His Pro Phe His AVA Ile Phe NH2 [P-25]
Relative Inhibition of HIV-1 Protease Activity (10^-4 M) (HIV-1 protease; peptide concentration added 10^-4 M): - | Relative Inhibition of HIV-1 Protease Activity (10^-5 M) (HIV-1 protease; peptide concentration added 10^-5 M): - | Relative Inhibition of HIV-1 Protease Activity (10^-6 M) (HIV-1 protease; peptide concentration added 10^-6 M): -

Compound: CC(C)CC(=O)N[C@H](C(=O)N[C@H](C(=O)N[C@@H](CC(C)C)[C@@H](O)CC(=O)N[C@@H](C)C(=O)N[C@@H](CC(C)C)[C@@H](O)CC(=O)O)C(C)C)C(C)C [Pepstatin A, Isovaline-Val-Val-Statine-Ala-Statine] (Isovaleryl-VV[Sta]A[Sta]-OH)
CPE inhibition score (Mo-MuLV; 1.56 μg/ml): - | CPE inhibition score (Mo-MuLV; 3.12 μg/ml): - | CPE inhibition score (Mo-MuLV; 6.25 μg/ml): - | CPE inhibition score (Mo-MuLV; 12.5 μg/ml): - | CPE inhibition score (Mo-MuLV; 25 μg/ml): - | CPE inhibition score (Mo-MuLV; 50 μg/ml): - | % Inhibition (virus yield) (MLV; 25 μg/ml): 52% | Yield (MLV; 25 μg/ml): 9.0 × 10^4 PFU/ML | % Inhibition (virus yield) (MLV; 50 μg/ml): 94% | Yield (MLV; 50 μg/ml, supernatants four days after infection): 1.2 × 10^4 PFU/ML

Compound: CC(=O)N[C@@H](Cc1ccc(O)cc1)C(=O)N1CCC[C@H]1C(=O)N[C@@H](Cc1ccccc1)C(=O)N[C@H](C(=O)N[C@@H](CC(C)C)[C@@H](O)CC(=O)N[C@@H](CC(C)C)C(=O)N[C@@H](Cc1ccccc1)C(N)=O)C(C)C [P-5, Ac Tyr Pro Phe Val Statine Leu Phe NH2] (Ac-YPFV[Sta]LF-NH2)
IC25 (Table V) (CEM cells): > 100 µg/mL | TC50 (concentration that reduced cell viability by 50%) (CEM cells): > 100 µg/mL

Further lines, with some results ahead:

IC25 (Table V) (CEM cells): > 10 µg/mL
Compound: CC(=O)N[C@@H](Cc1cccc2ccccc12)C(=O)N1CCC[C@H]1C(=O)N[C@@H](Cc1ccccc1)C(=O)N[C@H](C(=O)N[C@@H](CC(C)C)[C@@H](O)CC(=O)N[C@@H](CC(C)C)C(=O)N[C@@H](Cc1ccccc1)C(N)=O)C(C)C [P-7, Ac NA Pro Phe Val Statine Leu Phe NH2] (Ac-[1Nal]PFV[Sta]LF-NH2)
MTC50 (minimum cytotoxic drug concentration that reduces cell viability to 50%) (CEM cells): 21 µg/mL | TC50 (concentration that reduced cell viability by 50%) (CEM cells): > 10 µg/mL | MTC50 (minimum cytotoxic drug concentration that reduces cell viability to 50%) (MT-2 cells): 24.4 µg/mL

IC25 (Table V) (CEM cells): 49 µg/mL (≈ 48.7 µM)
Compound: CC(=O)N[C@@H](Cc1c[nH]c2ccccc12)C(=O)N1CCC[C@H]1C(=O)N[C@@H](Cc1ccccc1)C(=O)N[C@H](C(=O)N[C@@H](CC(C)C)[C@@H](O)CC(=O)N[C@@H](CC(C)C)C(=O)N[C@@H](Cc1ccccc1)C(N)=O)C(C)C [P-8, Ac Trp Pro Phe Val Statine Leu Phe NH2] (Ac-WPFV[Sta]LF-NH2)
TC50 (concentration that reduced cell viability by 50%) (CEM cells): 66 µg/mL (≈ 65.6 µM)

IC25 (Table V) (CEM cells): 49 µg/mL (≈ 50.7 µM)
Compound: CC(=O)N[C@@H](Cc1ccccc1)C(=O)N1CCC[C@H]1C(=O)N[C@@H](Cc1ccccc1)C(=O)N[C@H](C(=O)N[C@@H](CC(C)C)[C@@H](O)CC(=O)N[C@@H](CC(C)C)C(=O)N[C@@H](Cc1ccccc1)C(N)=O)C(C)C [P-10, Ac Phe Pro Phe Val Statine Leu Phe NH2] (Ac-FPFV[Sta]LF-NH2)
TC50 (concentration that reduced cell viability by 50%) (CEM cells): 55 µg/mL (≈ 56.9 µM)

IC25 (Table V) (CEM cells): > 100 µg/mL
Compound: COc1ccc(C[C@H](NC(C)=O)C(=O)N2CCC[C@H]2C(=O)N[C@@H](Cc2ccccc2)C(=O)N[C@H](C(=O)N[C@@H](CC(C)C)[C@@H](O)CC(=O)N[C@@H](CC(C)C)C(=O)N[C@@H](Cc2ccccc2)C(N)=O)C(C)C)cc1 [P-9, Ac YOM Pro Phe Val Statine Leu Phe NH2] (Ac-Y(Me)PFV[Sta]LF-NH2)
TC50 (concentration that reduced cell viability by 50%) (CEM cells): > 100 µg/mL
